In US8124566B2 (priority 2004, dated 2012):
Where “and” joins values, the source holds several entries; their conditions need not be identical. Equal values may be shown once. Read-outs that look alike come from different tables or passages of the source.

Tests used:
Format in all cases: cell-based
Details in all cases: active ingredient alone
Leptosphaeria nodorum = assay: Fungal growth assay, Leptosphaeria nodorum (Example B-8)
Venturia inaequalis = assay: Fungal growth assay, Venturia inaequalis (Example B-6 a)
Pyricularia oryzae = system: Pyricularia oryzae
Botrytis cinerea = assay: Fungal growth assay, Botrytis cinerea (Example B-1 a)
Pyrenophora teres = assay: Fungal growth assay, Pyrenophora teres (Example B-5 a)
Pythium ultimum = assay: Fungal growth assay, Pythium ultimum (Example B-7)
Alternaria solani = assay: Fungal growth assay, Alternaria solani (Example B-4 a)
Septoria tritici = assay: Fungal growth assay, Septoria tritici (Example B-2 a)

Fc1ccc([C@]2(Cn3cncn3)O[C@H]2c2ccccc2Cl)cc1 (racemic) [Epoxiconazole]
Observed control in % (% Cobs) (Leptosphaeria nodorum; 0.0025 ppm [mg/L]): 9% | Observed control in % (% Cobs) (Leptosphaeria nodorum; 0.0222 ppm [mg/L]): 39%

CC(Cc1ccc(C(C)(C)C)cc1)CN1C[C@@H](C)O[C@@H](C)C1 (stereo partly drawn) [Fenpropimorph]
Observed control in % (% Cobs) (Venturia inaequalis; 0.0025 ppm [mg/L]): 0% | Observed control in % (% Cobs) (Venturia inaequalis; 0.0222 ppm [mg/L]): 33%

CC(C1CC1)C(O)(Cn1cncn1)c1ccc(Cl)cc1 (stereo not drawn) [Cyproconazole]
Observed control in % (% Cobs) (Pyricularia oryzae; 0.022 ppm [mg/L]): 0% | Observed control in % (% Cobs) (Pyricularia oryzae; 0.200 ppm [mg/L]): 0%

N#Cc1c(Cl)c(Cl)c(Cl)c(C#N)c1Cl [Chlorothalonil]
Observed control in % (% Cobs) (Pyricularia oryzae; 0.002 ppm [mg/L]): 0% | Observed control in % (% Cobs) (Pyricularia oryzae; 0.007 ppm [mg/L]): 0% | Observed control in % (% Cobs) (Pyricularia oryzae; 0.067 ppm [mg/L]): 0%

Cc1cc(C2CC2)nc(Nc2ccccc2)n1 [Cyprodinil]
Observed control in % (% Cobs) (Pyricularia oryzae; 0.002 ppm [mg/L]): 0% | Observed control in % (% Cobs) (Pyricularia oryzae; 0.007 ppm [mg/L]): 0% | Observed control in % (% Cobs) (Pyricularia oryzae; 0.067 ppm [mg/L]): 0%

CO/C=C(/C(=O)OC)c1ccccc1Oc1cc(Oc2ccccc2C#N)ncn1 [Azoxystrobin]
Observed control in % (% Cobs) (Botrytis cinerea; 0.60 ppm [mg/L]): 7% | Observed control in % (% Cobs) (Botrytis cinerea; 1.80 ppm [mg/L]): 14%

C#CCOc1ccc(CCNC(=O)C(OCC#C)c2ccc(Cl)cc2)cc1OC (stereo not drawn) [Cpd F-1]
Observed control in % (% Cobs) (Pyrenophora teres; 5.4 ppm [mg/L]): 2% | Observed control in % (% Cobs) (Pyrenophora teres; 16.2 ppm [mg/L]): 6%

CO/C=C(/C(=O)OC)c1ccccc1COc1cccc(C(F)(F)F)n1 [Picoxystrobin]
Observed control in % (% Cobs) (Botrytis cinerea; 0.0222 ppm [mg/L]): 0% | Observed control in % (% Cobs) (Botrytis cinerea; 0.0667 ppm [mg/L]): 6% | Observed control in % (% Cobs) (Botrytis cinerea; 0.2000 ppm [mg/L]): 12% | Observed control in % (% Cobs) (Botrytis cinerea; 0.6000 ppm [mg/L]): 20%

CC(C)C1C2CCC1c1c(NC(=O)c3cn(C)nc3C(F)F)cccc12 (racemic) [Cpd Ic]
Observed control in % (% Cobs) (Pythium ultimum; 0.0667 ppm [mg/L]): 0% | Observed control in % (% Cobs) (Pythium ultimum; 0.2000 ppm [mg/L]): 0% | Observed control in % (% Cobs) (Pythium ultimum; 0.6000 ppm [mg/L]): 0% | Observed control in % (% Cobs) (Botrytis cinerea; 0.0025 ppm [mg/L]): 0% | Observed control in % (% Cobs) (Botrytis cinerea; 0.0074 ppm [mg/L]): 10% | Observed control in % (% Cobs) (Botrytis cinerea; 0.0222 ppm [mg/L]): 23% and 18% and 12% | Observed control in % (% Cobs) (Botrytis cinerea; 0.0667 ppm [mg/L]): 35% and 28% | Observed control in % (% Cobs) (Botrytis cinerea; 0.2000 ppm [mg/L]): 71% | Observed control in % (% Cobs) (Pyrenophora teres; 0.0667 ppm [mg/L]): 37% | Observed control in % (% Cobs) (Pyrenophora teres; 0.2000 ppm [mg/L]): 55% | Observed control in % (% Cobs) (Alternaria solani; 0.0025 ppm [mg/L]): 8% | Observed control in % (% Cobs) (Alternaria solani; 0.0074 ppm [mg/L]): 27% | Observed control in % (% Cobs) (Septoria tritici; 0.0001 ppm [mg/L]): 1% | Observed control in % (% Cobs) (Septoria tritici; 0.0008 ppm [mg/L]): 13% | Observed control in % (% Cobs) (Venturia inaequalis; 0.0222 ppm [mg/L]): 6% and 10% | Observed control in % (% Cobs) (Venturia inaequalis; 0.0667 ppm [mg/L]): 18% | Observed control in % (% Cobs) (Venturia inaequalis; 0.2000 ppm [mg/L]): 59% | Observed control in % (% Cobs) (Leptosphaeria nodorum; 0.0222 ppm [mg/L]): 0% | Observed control in % (% Cobs) (Leptosphaeria nodorum; 0.0667 ppm [mg/L]): 0% | Observed control in % (% Cobs) (Leptosphaeria nodorum; 0.2000 ppm [mg/L]): 0% | Observed control in % (% Cobs) (Pyricularia oryzae; 0.0001 ppm [mg/L]): 2% | Observed control in % (% Cobs) (Pyricularia oryzae; 0.0008 ppm [mg/L]): 3% | Observed control in % (% Cobs) (Pyricularia oryzae; 0.0025 ppm [mg/L]): 13% and 6% | Observed control in % (% Cobs) (Pyricularia oryzae; 0.0074 ppm [mg/L]): 33% | Observed control in % (% Cobs) (Pyricularia oryzae; 0.0222 ppm [mg/L]): 59%

N#Cc1c[nH]cc1-c1cccc2c1OC(F)(F)O2 [Fludioxonil]
Observed control in % (% Cobs) (Alternaria solani; 0.022 ppm [mg/L]): 1% | Observed control in % (% Cobs) (Alternaria solani; 0.067 ppm [mg/L]): 24%

OC(Cc1ccccc1Cl)(Cn1nc[nH]c1=S)C1(Cl)CC1 (stereo not drawn) [Prothioconazole]
Observed control in % (% Cobs) (Botrytis cinerea; 0.0222 ppm [mg/L]): 8% | Observed control in % (% Cobs) (Botrytis cinerea; 0.0667 ppm [mg/L]): 17% | Observed control in % (% Cobs) (Botrytis cinerea; 0.2000 ppm [mg/L]): 52%

CC(Cc1ccc(C(C)(C)C)cc1)CN1CCCCC1 (stereo not drawn) [Fenpropidin]
Observed control in % (% Cobs) (Pythium ultimum; 5.4000 ppm [mg/L]): 11% | Observed control in % (% Cobs) (Pythium ultimum; 16.2000 ppm [mg/L]): 34%

CCCC1COC(Cn2cncn2)(c2ccc(Cl)cc2Cl)O1 (stereo not drawn) [Propiconazole]
Observed control in % (% Cobs) (Septoria tritici; 0.007 ppm [mg/L]): 0% | Observed control in % (% Cobs) (Septoria tritici; 0.067 ppm [mg/L]): 7%

CC1COC(Cn2cncn2)(c2ccc(Oc3ccc(Cl)cc3)cc2Cl)O1 (stereo not drawn) [Difenoconazole]
Observed control in % (% Cobs) (Leptosphaeria nodorum; 0.0008 ppm [mg/L]): 5% | Observed control in % (% Cobs) (Leptosphaeria nodorum; 0.0025 ppm [mg/L]): 16% | Observed control in % (% Cobs) (Leptosphaeria nodorum; 0.0074 ppm [mg/L]): 73%

CC1CCN(c2c(-c3c(F)cc(F)cc3F)c(Cl)nc3ncnn23)CC1 [Cpd B-1]
Observed control in % (% Cobs) (Venturia inaequalis; 0.0008 ppm [mg/L]): 17% | Observed control in % (% Cobs) (Venturia inaequalis; 0.0025 ppm [mg/L]): 32% | Observed control in % (% Cobs) (Venturia inaequalis; 0.0074 ppm [mg/L]): 61%
